Measured values published in ChEMBL document CHEMBL2029205 (Bioorg Med Chem Lett, 2012).

Legend:
[1] = target: T1, Tyrosinase (Agaricus bisporus, UniProt O42713); assay: Inhibition of mushroom tyrosinase using L-DOPA as substrate after 20 mins by spectrophotometry
T1 sequence (O42713 whole entry): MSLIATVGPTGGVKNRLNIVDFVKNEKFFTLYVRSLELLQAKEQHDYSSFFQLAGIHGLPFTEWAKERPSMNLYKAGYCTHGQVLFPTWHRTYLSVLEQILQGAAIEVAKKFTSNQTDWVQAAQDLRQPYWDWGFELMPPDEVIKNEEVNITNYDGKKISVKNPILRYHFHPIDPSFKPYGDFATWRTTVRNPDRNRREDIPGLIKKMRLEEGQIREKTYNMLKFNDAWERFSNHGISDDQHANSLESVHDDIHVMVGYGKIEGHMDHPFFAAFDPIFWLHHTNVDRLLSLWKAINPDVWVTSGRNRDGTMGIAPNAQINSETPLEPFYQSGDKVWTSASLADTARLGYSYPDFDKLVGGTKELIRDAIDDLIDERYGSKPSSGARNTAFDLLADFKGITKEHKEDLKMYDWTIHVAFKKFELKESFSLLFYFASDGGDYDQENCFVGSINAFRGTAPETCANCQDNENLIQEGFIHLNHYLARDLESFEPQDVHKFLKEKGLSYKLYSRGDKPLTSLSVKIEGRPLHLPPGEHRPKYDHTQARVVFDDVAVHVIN

[2] = target: T1, Tyrosinase
Description: Inhibition of mushroom tyrosinase using L-tyrosine as substrate after 20 mins by spectrophotometry

[3] = cells; settings: Mus musculus, Melan-a, 96 h
Description: Cytotoxicity against mouse Melan-a cells after 4 days by crystal voilet method

[4] = in vitro; settings: mouse, Melan-a cells
Description: Ratio of IC50 for cytotoxicity against mouse Melan-a cells to IC50 for depigmentation in mouse Melan-a cells

IC50 [1] | IC50 [2] | IC50 [3] | SMILES | selectivity ratio [4]
> 200 µM | > 200 µM | 27.4 µM | O=C(OCc1cc(=O)c(O)co1)c1cc(C23CC4CC(CC(C4)C2)C3)c(O)cc1O | 3.41
– | – | 23.8 µM | COc1coc(COC(=O)c2ccc(O)c(C34CC5CC(CC(C5)C3)C4)c2)cc1=O | 6.16
> 200 µM | > 200 µM | 17.6 µM | COc1cc(OC)c(C23CC4CC(CC(C4)C2)C3)cc1C(=O)OCc1cc(=O)c(O)co1 | 4.39
3.61 µM | 3.51 µM | > 80 µM | O=C(OCc1cc(=O)c(O)co1)c1ccc(O)cc1O | –

Continued, molecule first:

SMILES | IC50 [1] | IC50 [2] | IC50 [3] | selectivity ratio [4]
COc1cc(O)c(C(=O)OCc2cc(=O)c(O)co2)cc1C12CC3CC(CC(C3)C1)C2 | > 200 µM | > 200 µM | 26.8 µM | 3
COc1ccc(C(=O)OCc2cc(=O)c(O)co2)c(OC)c1 | 4.8 µM | 3.23 µM | > 80 µM | –
COc1ccc(C(=O)OCc2cc(=O)c(O)co2)cc1C12CC3CC(CC(C3)C1)C2 | > 200 µM | > 200 µM | 19 µM | 5.55
O=C(OCc1cc(=O)c(O)co1)c1ccc(O)cc1 | 1.8 µM | 2.8 µM | > 80 µM | –
COc1ccc(C(=O)OCc2cc(=O)c(OC)co2)cc1C12CC3CC(CC(C3)C1)C2 | – | – | 31.3 µM | 6.54
COc1ccc(C(=O)OCc2cc(=O)c(O)co2)c(O)c1 | 20.1 µM | 10.6 µM | > 80 µM | –
O=C(OCc1cc(=O)c(O)co1)c1ccc(O)c(C23CC4CC(CC(C4)C2)C3)c1 | > 200 µM | > 200 µM | 27.6 µM | 7.25
Oc1ccc(O)cc1 [HYDROQUINONE] | – | 10 µM | 15 µM | 3.56
COc1ccc(C(=O)OCc2cc(=O)c(O)co2)cc1 | 2.05 µM | 2.03 µM | > 80 µM | –
